A short description of series [1]: Toxicity test, albino rat/peroral. The following applies: in vivo, po; albino rat; peroral; evaluation after 7 days. The protocol: Test animal: Albino rat (Rattus norvegicus)
To produce a suitable preparation of active compound, 3 parts by weight of active compound were mixed with 2.8 parts by weight of highly disperse silica and 4.2 parts by weight of talc. Suspensions, which contained, in 1 ml of liquid, the amount of active compound to be adminstered per 100 g of animal weight, were prepared from the above active-compound concentrate, with addition of a little powdered vegetable gum, by trituration with water. The dosage was measured out volumetrically after weighing the test animals. It was administered orally by means of a steel knob-ended probe. The results were in each case evaluated at the end of the above-mentioned interval of time, calculated from the administration of the active compound.
The LD50 values (dose of active compound which kills 50% of the treated animals) was determined from the mortality values of the dose which were varied in geometrical progression, in the usual manner.
The active compounds and LD50 values can be seen from Table 5 which follows.

In another series the test system is warm-blooded animals. The following applies: prior-art compounds; cited from earlier work.
In series [2] the test system is two-spotted spider mite (Tetranychus urticae). The series is described as follows: Tetranychus test (resistant). The series is classed as in vivo. As to conditions: 48 h, active compound concentration 0.1 %, after 2 days, resistant mites, read-out: Degree of destruction in % after 2 days. The procedure:
Tetranychus test (resistant)
(§1) Solvent: 3 parts by weight of acetone
(§2) Emulsifier: 1 part by weight of alkylaryl polyglycol ether
(§3) To produce a suitable preparation of active compound, 1 part by weight of the active compound was mixed with the stated amount of solvent containing the stated amount of emulsifier and the concentrate was diluted with water to the desired concentration.
These bean plants were heavily infested with the two-spotted spider mite (Tetranychus urticae) in all stages of development.
After the specified periods of time, the effectiveness of the preparation of active compound was determined by counting the dead mites. The degree of destruction thus obtained was expressed as a percentage: 100% means that all the spider mites were killed whereas 0% means that none of the spider mites were killed.
The active compounds, the concentrations of the active compounds, the evaluation times and the results can be seen from the following Table 3: […]

Another series concerns insects and acarids. The following applies: prior-art compounds; cited from earlier work.
In series [3] the test system is caterpillars of the diamond-back moth (Plutella maculipennis). The series is described as follows: Plutella test. The series is classed as in vivo. The following applies: 72 h, after 3 days, read-out: Degree of destruction in % after 3 days; for mortality at 0.1 %: active compound concentration 0.1 %. The protocol:
as §1, §2, §3
Cabbage leaves (Brassica oleracea) were sprayed with the preparation of the active compound until dew moist and were then infested with caterpillars of the diamond-back moth (Plutella maculipennis).
After the specified periods of time, the degree of destruction was determined as a percentage: 100% means that all the caterpillars were killed, whereas 0% means that none of the caterpillars were killed.
The active compounds, the concentrations of the active compounds, the evaluation times and the results can be seen from the following Table 2.

Series [4] has as its system fly larvae (Lucilia cuprina). The series is described as follows: Test with parasitic fly larvae/Lucilia cuprina res. The series is classed as in vivo. The following applies: after 24 hours, resistant larvae, read-out: Degree of destruction in %. The procedure: Test with parasitic fly larvae
35 parts by weight of ethylene polyglycol monomethyl ether
35 parts by weight of nonylphenol polyglycol ether
To produce a suitable preparation of active compound, 30 parts by weight of the active substance in question were mixed with the stated amount of solvent which contained the above-mentioned proportion of emulsifier and the concentrate thus obtained was diluted with water to the desired concentration.
About 20 fly larvae (Lucilia cuprina) were introduced into a test tube which contained approximately 2 ml of horse muscle. 0.5 ml of the preparation of active compound was applied to this horse meat. After 24 hours, the degree of destruction in % was determined. 100% means that all the larvae had been killed and 0% means that no larvae had been killed.

With `CCOP(=S)(OCC)Oc1n[nH]c(=O)c2ccccc12` [Compound A, O,O-diethyl-O-[phthalaz-(8)-on-(3)-yl]-thionophosphoric acid ester], in series [1], the 50% lethal dose (LD50) (usually the dose at which mortality reaches 50%) at 168 h was around 25 mg/kg. In addition, the “toxicity to warm-blooded animals” value with warm-blooded animals was “high toxicity to warm-blooded animals”. The mortality at 0.1 % in series [2] and in series [3] was 0% in each case. In addition, in the series with insects and acarids, the “insecticidal and acaricidal properties” value was “good insecticidal and acaricidal properties”.
The compound `CCOP(=S)(OCC)Oc1ccc(=O)[nH]n1` [Compound B, O,O-diethyl-O-[pyridaz-(6)-on-(3)-yl]-thionophosphoric acid ester] showed a median lethal dose (LD50) at 168 h in series [1] of 2.5 to 5 mg/kg. Besides, in the series on warm-blooded animals, the “toxicity to warm-blooded animals” value is “high toxicity to warm-blooded animals”. Also, in series [4] (active compound concentration 30 ppm), the mortality at 30 ppm was below 50%. Further, in series [4] (active compound concentration 300 ppm), the mortality at 300 ppm was found to be 100%. Also, the mortality at 0.1 % in series [2] came out at 20%; in series [3], 100%. The “insecticidal and acaricidal properties” value in the series on insects and acarids is “good insecticidal and acaricidal properties”. Besides, in series [3] (active compound concentration 0.001 %), the mortality at 0.001 % was 0%. The mortality at 0.01 % in series [3] (active compound concentration 0.01 %) is 80%.
